The test system of assay [1] is PD-L1 (CD274) mRNA in UKE-1 tumors. The experiment in a line: PD-L1 mRNA in UKE-1 tumor xenograft model. The settings on record: tumor xenograft model bearing UKE-1 (MPN line with JAK2V617F mutation); FIG. 20. It counts as in vivo, human. How it is done: (§1) TaqMan RT PCR assays were developed to detect changes of expression levels of PD-L1 (CD274) in cell lines and xenograft tumors. mRNA was isolated from frozen cell pellets or tumor fragments using the Qiagen RNeasy Mini kit. Isolated RNA was frozen at −80° C. RNA quality was checked and RNA was quantified using a 2100 Agilent Bioanalyzer following the protocol for the Agilent RNA 6000 Nano Kit. cDNA was prepared using a High Capacity RNA—to cDNA Kit (Applied Biosystems).
(§2) Real-time PCR reactions were carried out in 20 μl total volume, including 10 μl of Universal PCR master mix (Applied Biosystems), 1 μl of human PD-L1 (CD274) probe/primer set (Applied Biosystems), and 8 μl of cDNA. Each sample was run in triplicate. The amount of cDNA produced from 25-50 ng of RNA in the reverse transcription reaction was used in each PCR reaction. Due to difference in mRNA levels between PD-L1 and GAPDH, the two real-time PCR reactions were done in separate tubes using same amount of cDNA. The real-time PCR reaction was run on the C1000 Thermal Cycle (BioRad) with the cycle program as follows: a 10 minute incubation at 95° C. followed by 40 cycles of 95° C. for 15 seconds and 60° C. for 1 minute. After the reaction was complete, the PD-L1 average Ct was normalized relative to each Ct value from the GAPDH reference reaction. Each normalized logarithmic value was then converted into a linear value.
Background: A xenograft is tissue or cells of one species grown in another, often human tumour cells in immunodeficient mice.

Assay [2] deals with PD-L1 (CD274) mRNA in H3122 cells. The experiment in a line: TaqMan RT PCR of PD-L1 mRNA in H3122 cells in vitro. The settings on record: H3122 (NSCLC with ALK translocation) in vitro; FIG. 17. It counts as cell-based, human. The protocol:
as §1, §2
For orientation: Real-time PCR tracks product formation cycle by cycle.

Assay [3] has as its system PD-L1 (CD274) mRNA in LOXIMV1 tumors. Nature of the assay: PD-L1 mRNA in LOXIMV1 tumor xenograft model. It counts as in vivo, human. The following applies: tumor xenograft model bearing LOXIMV1 (BRAF mutant melanoma); FIG. 18. How it is done: as §1, §2
The test system of assay [4] is PD-L1 (CD274) mRNA in HEYA8 tumors. The experiment in a line: PD-L1 mRNA in HEYA8 tumor xenograft model. The settings on record: tumor xenograft model bearing HEYA8 (KRAF mutant ovarian cancer); FIG. 19. It is filed as in vivo, human. How it is done:
as §1, §2

In assay [5] the test system is PD-L1 (CD274) mRNA in Hs.746.T tumor. Nature of the assay: PD-L1 mRNA in Hs.746.T tumor xenograft. It is filed as in vivo, human. The settings on record: Hs.746.T tumor (gastric cancer, cMET amplification & mutation) xenograft; FIG. 16. The protocol:
as §1, §2

The test system of assay [6] is PD-L1 (CD274) surface expression in EBC-1 cells. Nature of the assay: Flow cytometry of PD-L1 surface expression in EBC-1 cells in vitro. It is filed as cell-based, human. The settings on record: EBC-1 cells (NSCLC with cMET amplification); 10, 100, 1000 nM; 24, 48, 72 hours; vs DMSO; FIG. 15. How it is done: PD-L1 (CD274) expression was analyzed in cancer cell lines treated with Compound A17. Cells were obtained from ATCC and cultured in vitro following ATCC directions. The cell lines used were previously characterized by the Cancer Cell Line Encyclopedia Project (http://www.broadinstitute.org/ccle/home).
Cells plated in six-well culture plates were treated with the Compound A17 at different concentrations (10 nM, 100 nM, and 1000 nM) for 24, 48 and 72 hours. Equal amount of vehicle (DMSO) was used as a control. Cells were washed with PBS and then harvested using a cell scraper.
For each reaction, 0.5-1×10^6 cells were stained with 20 μL of anti-human monoclonal PD-L1— PE antibody, clone M1H1 (BD) for 30-60 minutes at 4° C. Cells were washed twice and data was acquired using a Canto II with FACSDiva software (BD Bioscience). Data analysis was performed using FlowJo software (Tree Star). Mean fluorescence intensity (MFI) was determined by gating on single cells. Unstained cells were used as a gating control.
On the technique in general: In flow cytometry, cells or beads pass a laser one at a time.

For assay [7], the system named is interferon gamma (IFN-γ) expression. It is filed as cell-based.
A further assay relates to CD8+ T cells. The experiment in a line: Proliferation of CD8+ T cells activated with CMV peptides. It counts as cell-based. The settings on record: percentages of CD8+ cells that passed through at least n cell divisions (n=2, 4, 6).

Values joined by “and” are separate entries in the source; they are usually repeats but may differ in a detail not shown here. Equal entries are not always repeated. “Also recorded” adds a separate entry of the source. Where two headings read alike, the source gives them in different places.

As to `N#CC[C@H](C1CCCC1)n1cc(-c2ncnc3[nH]ccc23)cn1` [Compound A18, Ruxolitinib Phosphate], the “PD-L1 mRNA” value in assay [1] is recorded as “Significant inhibition; also recorded: Downregulation”.

Regarding `Cc1cc(Nc2ncc(Cl)c(Nc3ccccc3S(=O)(=O)C(C)C)n2)c(OC(C)C)cc1C1CCNCC1` [Compound A23, ceritinib], in assay [2], the “PD-L1 mRNA” value was “Significant inhibition”.

For `COC(=O)N[C@@H](C)CNc1nccc(-c2cn(C(C)C)nc2-c2cc(Cl)cc(NS(C)(=O)=O)c2F)n1` [Compound A29, Encorafenib], the “PD-L1 mRNA” value in assay [3] is recorded as “Significant inhibition; also recorded: Downregulation”.

For the molecule `Cn1cnc2c(F)c(Nc3ccc(Br)cc3F)c(C(=O)NOCCO)cc21` [Compound A34, Binimetinib], the “PD-L1 mRNA” value in assay [4] is “Significant inhibition; also recorded: Downregulation”.

With `CNC(=O)c1ccc(-c2cnc3ncc(Cc4ccc5ncccc5c4)n3n2)cc1F` [Compound A17, 2-fluoro-N-methyl-4-(7-(quinolin-6-ylmethyl)imidazo[1,2-b][1,2,4]triazin-2-yl)benzamide], in assay [5], the “PD-L1 expression (mRNA)” value is “Inhibition”. In addition, the “surface expression of PD-L1 (flow cytometry)” value in assay [6] was “Significant inhibition; also recorded: significant downregulation”.

B1: BAP049: murine anti-PD-1 monoclonal antibody (antibody, V domains shown)
VH: QVQLQQSGSELVRPGASVKLSCKASGYTFTTYWMHWVRQRPGQGLEWIGNIYPGTGGSNFDEKFKNRTSLTVDTSSTTAYMHLASLTSEDSAVYYCTRWTTGTGAYWGQGTLVTVSA
VL: DIVMTQSPSSLTVTAGEKVTMSCKSSQSLLDSGNQKNFLTWYQQKPGQPPKLLIFWASTRESGVPDRFTGSGSVTDFTLTISSVQAEDLAVYYCQNDYSYPCTFGGGTKLEIK
B1: the “fold increase in IFN-γ expression” value in assay [7] was 2.3±1.1 fold and 2.8±0.8 fold; in assay [7] (cells stimulated with Staphylococcal enterotoxin B (SEB) (3 pg/mL)) it was 2.5±2.0 fold. Also, the “proliferation of CD8+ T cells activated with CMV peptides” value with CD8+ T cells is given as “increase proliferation”.

The values above are taken from patent US20230013364A1, “COMBINATION THERAPIES COMPRISING ANTIBODY MOLECULES TO PD-1” (Novartis AG, priority 2015, published 2023).
